Values joined by “and” are separate entries in the source; they are usually repeats but may differ in a detail not shown here. Equal entries are not always repeated. Where two headings read alike, the source gives them in different places.
Assays:
[1] = Ascorbate oxidation assay (redox activity of iron complexes); assay type: biochemical;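 on %Fe 30min (ascorbate oxidation, Fe 100%), průměr: IBE 3 means excess free chelator over iron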;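 on %Fe 30min (ascorbate oxidation, Fe 100%): IBE 3 means excess free chelator over iron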;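 on Change of absorbance, odečet 0 (time 0 subtracted), čas 10, průměr: IBE 3 means excess free chelator over 10 µM FeCl3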;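 on Change of absorbance, odečet 0 (time 0 subtracted), čas 10: IBE 3 means excess free chelator over 10 µM FeCl3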;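 on Change of absorbance, odečet 0 (time 0 subtracted), čas 20, průměr: 100 µM ascorbate with 10 µM FeCl3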;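 on Change of absorbance, odečet 0 (time 0 subtracted), čas 20: 100 µM ascorbate with 10 µM FeCl3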;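 on Change of absorbance, odečet 0 (time 0 subtracted), čas 30, průměr: 100 µM ascorbate with 10 µM FeCl3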;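 on Change of absorbance, odečet 0 (time 0 subtracted), čas 30: 100 µM ascorbate with 10 µM FeCl3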;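 on raw reading at čas 30 (time 30), single replicates: IBE 1 means fully coordinated iron chelator complexes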
[2] = test system: MCF-7 human breast adenocarcinoma cells; test: MTT cytotoxicity assay, MCF-7 cells; assay type: cell-based; conditions: for IC50: MTT, read-out: IC50
Experimental: For cytotoxicity experiments, cancer cells were seeded at a density of 5,000 (MCF-7), 10,000 (HL-60) or 2,000 cells/well (HCT116 and A549) in 96-well plates (TPP) for 24 h/37°C prior to the addition of examined agents. The non-cancerous cells, 3T3 and H9c2 cells, were cultured for 24 h/37°C in 96-well plates at a density of 10,000 cells/well, the medium was then changed to serum- and pyruvate-free DMEM (Sigma-Aldrich) and incubated with the cells for another 24 h/37°C. The cytotoxic effects of Bp4eT and its metabolites were studied at different concentrations after a 72 h/37°C incubation. In order to aid the dissolution of the lipophilic ligands, 0.1% dimethyl sulfoxide (v/v) (DMSO; Sigma-Aldrich) was present in the culture medium of all groups. At this concentration, DMSO had no effect on cellular proliferation or viability.
The viability of cells were determined using an MTT assay (Sigma-Aldrich) according to previously established methods. The optical density of soluble MTT was measured at λ = 570 nm, subtracting the λ = 690 nm background using a Tecan Infinite 200M plate reader (Tecan Group, Männedorf, Switzerland). The viability or proliferation of experimental groups was expressed as a percentage of the untreated controls (100%).
SigmaStat for Windows 3.5 (Systat Software, San Jose, CA, USA) statistical software package was utilized to analyze results. The data are expressed as the mean ± SD of a given number of experiments. Statistical significance was determined using a one-way ANOVA with a Bonferroni post-hoc test or Student’s t-test. The results were considered to be statistically significant when p < 0.05. The IC50 values were calculated using CalcuSyn 2.0 software (Biosoft, Cambridge, UK). Cell cycle analysis was evaluated using MultiCycle AV Software (Phoenix Flow Systems, San Diego, CA, USA).

[3] = Viability (viabilita) used to normalise caspase activity; assay type: cell-based, human; conditions: human, MCF-7 cells, kontrola = 100;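 further: compound tested at 100 nM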
Description: Supplement pone.0139929.s002.zip/caspases activity.xlsx, sheet "results_viability"

[4] = test system: MCF-7 cells prelabeled with 59Fe2-transferrin; test: Mobilization (efflux) of cellular 59Fe; assay type: cell-based, human; parameters: Efflux 59Fe / Efflux 59Fe, Ave: unit not given here
Description: Human transferrin (Sigma) was labeled with ^56Fe or ^59Fe (PerkinElmer, Massachusetts, USA) to produce ^56Fe2-transferrin or ^59Fe2-transferrin (^59Fe2-Tf), respectively, with a final specific activity of 500 pCi/pmol Fe, as previously described. Unbound ^59Fe was removed by exhaustive vacuum dialysis against a large excess of 0.15 M NaCl buffered to pH 7.4 with 1.4% NaHCO3 by standard methods.
To examine the ability of studied compounds to mobilize cellular ^59Fe from MCF-7 cells, iron efflux experiments were performed using established techniques. In brief, after pre-labeling confluent MCF-7 cells on 6-well plates with 0.75 μM ^59Fe2-Tf for 3 h/37°C, the cells were washed four times with ice-cold PBS and then subsequently incubated with 25 μM of Bp4eT or its metabolites for 3 h/37°C. The overlying medium containing released ^59Fe was then decanted from the cells. Radioactivity was measured in both the cells and the supernatant using a γ-scintillation counter (Wallac Wizard 3, Turku, Finland).

## CCN=CNN=C(c1ccccc1)c1ccccn1 [Bp4eA, N ^3-ethyl-N ^1-[phenyl(pyridin-2-yl)methylene]formamidrazone]
[1]; sheet IBE 1, time 30, replicates
  raw reading at čas 30 (time 30), single replicates: 0.7079 and 0.7152 and 0.7154 and 0.7051 and 0.7171 and 0.7181 and 0.7279 and 0.7402 and 0.7477
[1]; sheet IBE 3, 30min, Fe alone = 100%, mean (průměr) of the 9 replicates
  %Fe 30min (ascorbate oxidation, Fe 100%), průměr: 105.3%
[1]; sheet IBE 3, 30min, Fe alone = 100%, single replicates
  %Fe 30min (ascorbate oxidation, Fe 100%): 100.1% and 103.3% and 98.42% and 112.4% and 108.5% and 106.2% and 109.9% and 107% and 102%
[1]; sheet IBE 3, time 10 minus time 0, mean (průměr)
  Change of absorbance, odečet 0 (time 0 subtracted), čas 10, průměr: -0.03537
[1]; sheet IBE 3, time 10 minus time 0, single replicates
  Change of absorbance, odečet 0 (time 0 subtracted), čas 10: -0.03156 and -0.03676 and -0.03266 and -0.04073 and -0.03893 and -0.03883 and -0.03458 and -0.03388 and -0.03038
[1]; sheet IBE 3, time 20 minus time 0, mean (průměr)
  Change of absorbance, odečet 0 (time 0 subtracted), čas 20, průměr: -0.06757
[1]; sheet IBE 3, time 20 minus time 0, single replicates
  Change of absorbance, odečet 0 (time 0 subtracted), čas 20: -0.06509 and -0.07099 and -0.06549 and -0.07376 and -0.07016 and -0.07036 and -0.06559 and -0.06109
[1]; sheet IBE 3, time 30 minus time 0, mean (průměr)
  Change of absorbance, odečet 0 (time 0 subtracted), čas 30, průměr: -0.0973
[1]; sheet IBE 3, time 30 minus time 0, single replicates
  Change of absorbance, odečet 0 (time 0 subtracted), čas 30: -0.09296 and -0.09586 and -0.09136 and -0.1043 and -0.1007 and -0.0986 and -0.1006 and -0.09796 and -0.09336
[2]; 3T3/MCF-7
  Therapeutic index, IC50 non-cancerous cells / IC50 neoplastic cells: 17.3
[2]; H9c2/MCF-7
  Therapeutic index, IC50 non-cancerous cells / IC50 neoplastic cells: 7.0
[2]; Homo sapiens, MCF7, 72 h, MCF-7, 72 h/37°C, mean ± SD, n ≥ 4
  IC50: 59.4 ± 8.9 µM
[2]; Homo sapiens, MCF7, MCF-7, 5 000 b/j, průměr (mean)
  IC50: 59.4 µM
[2]; Homo sapiens, MCF7, MCF-7, 5 000 b/j, single experiment (by date)
  IC50: 69.9 µM
[2]; MCF-7, 5 000 b/j, single experiment (by date)
  IC50: 48.9 µM and 62.4 µM and 56.6 µM
[2]; MCF-7, 5 000 b/j, koncentrace 1 μM, průměr (mean)
  MTT, value relative to 0 μM = 100: 93.04
[2]; MCF-7, 5 000 b/j, koncentrace 1 μM, single experiment (by date)
  MTT, value relative to 0 μM = 100: 90.8485 and 99.965 and 93.7506 and 93.1688 and 87.4567
[2]; MCF-7, 5 000 b/j, koncentrace 3 μM, průměr (mean)
  MTT, value relative to 0 μM = 100: 85.43
[2]; MCF-7, 5 000 b/j, koncentrace 3 μM, single experiment (by date)
  MTT, value relative to 0 μM = 100: 93.874 and 91.0261 and 71.3771
[2]; MCF-7, 5 000 b/j, koncentrace 10 μM, průměr (mean)
  MTT, value relative to 0 μM = 100: 84.39
[2]; MCF-7, 5 000 b/j, koncentrace 10 μM, single experiment (by date)
  MTT, value relative to 0 μM = 100: 92.9139 and 90.5956 and 78.0175 and 76.0291
[2]; MCF-7, 5 000 b/j, koncentrace 30 μM, průměr (mean)
  MTT, value relative to 0 μM = 100: 81.82
[2]; MCF-7, 5 000 b/j, koncentrace 30 μM, single experiment (by date)
  MTT, value relative to 0 μM = 100: 88.8876 and 87.4579 and 79.9984 and 70.9265
[2]; MCF-7, 5 000 b/j, koncentrace 100 μM, průměr (mean)
  MTT, value relative to 0 μM = 100: 26.24
[2]; MCF-7, 5 000 b/j, koncentrace 100 μM, single experiment (by date)
  MTT, value relative to 0 μM = 100: 35.9762 and 29.29 and 21.3398 and 22.2541 and 22.3478
[2]; MCF-7, 5 000 b/j, koncentrace 300 μM, průměr (mean)
  MTT, value relative to 0 μM = 100: 16.91
[2]; MCF-7, 5 000 b/j, koncentrace 300 μM, single experiment (by date)
  MTT, value relative to 0 μM = 100: 19.6559 and 17.473 and 16.628 and 13.8677
[2]; MCF-7, 5 000 b/j, koncentrace 1000 μM, průměr (mean)
  MTT, value relative to 0 μM = 100: 14.02
[2]; MCF-7, 5 000 b/j, koncentrace 1000 μM, single experiment (by date)
  MTT, value relative to 0 μM = 100: 14.4001 and 13.0033 and 14.9518 and 13.7358
[3]; 3 hodiny
  viability at 3 h, 100 nM: 96.8%
[3]; 24 hodin
  viability at 24 h, 100 nM: 95.6%
[3]; 72 hodin
  viability at 72 h, 100 nM: 93%
[4]; average of all replicates
  Efflux 59Fe, Ave: 3.53
[4]; single replicate (three per date)
  Efflux 59Fe: 4.0325 and 2.6377 and 3.5208 and 3.7889 and 3.2967 and 3.9821 and 3.9608 and 3.1218 and 3.4276

From publication PMC4604124, “In Vitro Characterization of the Pharmacological Properties of the Anti-Cancer Chelator, Bp4eT, and Its Phase I Metabolites” (PLoS ONE, 2015)
